According to US9949975B2, “Inhibitors of beta-secretase” (Vitae Pharmaceuticals, Inc., priority 2012, dated 2018):

biological target: hERG channel (Homo sapiens (Human), UniProt Q12809); assay: hERG-Channel Assay (Assay 3), whole-cell patch clamp; type: cell-based; conditions: HEK293 cells transfected with hERG, 35° C.
From the text: HEK (human embryonic kidney) 293 cells were stably transfected with hERG cDNA.
Cells were superfused with a bath solution containing (mM): NaCl (137), KCl (4.0), MgCl2 (1.0), CaCl2 (1.8), Glucose (10), HEPES (10), pH 7.4 with NaOH. Patch pipettes were made from borosilicate glass tubing using a horizontal puller and filled with pipette solution containing (mM): K-aspartate (130), MgCl2 (5.0), EGTA (5.0), K2ATP (4.0), HEPES (10.0), pH 7.2 with KOH. Resistance of the microelectrodes was in the range between 2 and 5 MΩ.
Membrane currents were recorded using an EPC-10 patch clamp amplifier and PatchMaster software. hERG-mediated membrane currents were recorded at 35° C., using the whole-cell configuration of the patch-clamp technique. Transfected HEK293 cells were clamped at a holding potential of −60 mV and hERG-mediated inactivating tail currents were elicited using a pulse pattern with fixed amplitudes (activation/inactivation: 40 mV for 2000 ms; recovery: −120 mV for 2 ms; ramp to 40 mV in 2 ms; inactivating tail current: 40 mV for 50 ms) repeated at 15 s intervals. During each inter-pulse interval 4 pulses scaled down by a factor of 0.2 were recorded for a P/n leak subtraction procedure. Rs compensation was employed up to a level that safely allowed recording devoid of ringing.
The different concentrations of the test compound were applied sequentially on each of the different cells investigated. A steady state level of baseline current was measured for at least 6 sweeps prior to the application of the first test compound concentration.
The test compound was dissolved in DMSO to yield a master stock solution which was diluted further in DMSO to stock solutions needed for the lower concentrations. Final dilutions in extracellular buffer were prepared freshly from these stocks by a 1:1000 dilution step each before starting the experiments.
Peak current amplitudes were measured 3 ms after the ramp to +40 mV. For baseline and each concentration the peak currents of the three last sweeps before application of the next concentration were averaged. Residual currents (I/I0) were calculated for each cell as the fraction of actual average peak current and average baseline peak current. Results are presented as percent (%) inhibition (1−I/I0)*100% at 10 μM.

Sequence of hERG channel (Q12809 whole entry): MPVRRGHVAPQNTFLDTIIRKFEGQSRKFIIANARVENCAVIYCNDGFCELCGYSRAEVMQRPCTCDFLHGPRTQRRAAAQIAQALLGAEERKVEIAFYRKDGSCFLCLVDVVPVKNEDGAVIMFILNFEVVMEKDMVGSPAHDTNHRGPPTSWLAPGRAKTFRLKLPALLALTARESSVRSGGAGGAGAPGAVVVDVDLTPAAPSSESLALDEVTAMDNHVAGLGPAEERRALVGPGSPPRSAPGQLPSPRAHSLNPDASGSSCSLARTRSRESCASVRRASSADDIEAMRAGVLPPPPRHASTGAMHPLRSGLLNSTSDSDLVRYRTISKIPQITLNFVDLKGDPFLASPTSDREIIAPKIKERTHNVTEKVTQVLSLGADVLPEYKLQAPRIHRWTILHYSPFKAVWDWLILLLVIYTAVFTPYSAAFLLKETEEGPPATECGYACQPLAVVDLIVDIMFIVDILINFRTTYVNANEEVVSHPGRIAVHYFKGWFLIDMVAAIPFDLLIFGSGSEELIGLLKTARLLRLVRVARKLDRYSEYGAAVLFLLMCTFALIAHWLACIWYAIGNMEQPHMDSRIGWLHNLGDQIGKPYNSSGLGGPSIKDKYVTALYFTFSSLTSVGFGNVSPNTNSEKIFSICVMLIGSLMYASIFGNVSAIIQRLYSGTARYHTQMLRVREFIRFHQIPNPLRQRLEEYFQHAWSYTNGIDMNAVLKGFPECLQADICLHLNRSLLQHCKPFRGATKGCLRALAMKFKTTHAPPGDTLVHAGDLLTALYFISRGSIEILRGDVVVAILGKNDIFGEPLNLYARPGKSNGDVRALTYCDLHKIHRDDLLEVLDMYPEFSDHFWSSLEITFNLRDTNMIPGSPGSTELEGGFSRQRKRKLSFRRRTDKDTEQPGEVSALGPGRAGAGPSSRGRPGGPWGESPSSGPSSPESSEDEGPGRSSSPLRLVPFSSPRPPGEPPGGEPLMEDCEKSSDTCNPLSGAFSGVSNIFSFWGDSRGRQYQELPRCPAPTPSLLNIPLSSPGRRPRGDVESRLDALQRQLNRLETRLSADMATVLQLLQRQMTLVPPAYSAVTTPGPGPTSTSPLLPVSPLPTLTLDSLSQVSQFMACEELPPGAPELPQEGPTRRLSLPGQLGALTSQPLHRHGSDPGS

**Q.** For `CO[C@H]1[C@H](C)C[C@@]2(Cc3ccc(C#N)cc3[C@]23N=C(N)N(C2COC2)C3=O)C[C@@H]1C` [Example 12], which “hERG % inhibition @ 10 μM (assay 3)” value is on record?
**A.** Its value is 11%.

**Q.** How did the “hERG % inhibition @ 10 μM (assay 3)” value turn out when `CC[C@@H]1C[C@]2(CC[C@H]1OC)Cc1ccc(C#N)cc1[C@]21N=C(N)N(CC2(F)CCOCC2)C1=O` [Example 4] was run?
**A.** Its value is 0%.

**Q.** `CO[C@H]1[C@H](C)C[C@@]2(Cc3ccc(C#N)cc3[C@]23N=C(N)N(C[C@@H]2CCCO2)C3=O)C[C@@H]1C` [Example 15] was tested. Which “hERG % inhibition @ 10 μM (assay 3)” value did it give?
**A.** The value was 11%.

**Q.** With `CO[C@H]1CC[C@@]2(Cc3ccc(C#N)cc3[C@]23N=C(N)N(Cc2ncccn2)C3=O)C[C@@H]1C` [Example 6] as the compound, how does the “hERG % inhibition @ 10 μM (assay 3)” value read?
**A.** Its value is 35%.

**Q.** Which “hERG % inhibition @ 10 μM (assay 3)” value does the source give for `CO[C@H]1[C@H](C)C[C@@]2(Cc3ccc(C#N)cc3[C@]23N=C(N)N(CC2(F)CCOCC2)C3=O)C[C@@H]1C` [Example 23] here?
**A.** The value was 16%.

**Q.** For `CO[C@H]1[C@H](C)C[C@@]2(Cc3ccc(C#N)cc3[C@]23N=C(N)N(C[C@H]2COCCO2)C3=O)C[C@@H]1C` [Example 22], which “hERG % inhibition @ 10 μM (assay 3)” value is on record?
**A.** Its value is 9%.

**Q.** For `CO[C@H]1[C@H](C)C[C@@]2(Cc3ccc(C#N)cc3[C@]23N=C(N)N(CC2CCOCC2)C3=O)C[C@@H]1C` [Example 16], which “hERG % inhibition @ 10 μM (assay 3)” value is on record?
**A.** The value was 6%.

**Q.** Which “hERG % inhibition @ 10 μM (assay 3)” value does the source give for `CC[C@@H]1C[C@@]2(Cc3ccc(C#N)cc3[C@]23N=C(N)N(CC(C)(C)F)C3=O)C[C@H](C)[C@H]1OC` [Example 26] here?
**A.** Its value is 8%.

**Q.** `CO[C@H]1[C@H](C)C[C@@]2(Cc3ccc(C#N)cc3[C@]23N=C(N)N(C[C@H]2CCCO2)C3=O)C[C@@H]1C` [Example 14] was tested. Which “hERG % inhibition @ 10 μM (assay 3)” value did it give?
**A.** Its value is 20%.

**Q.** `CO[C@H]1[C@H](C)C[C@@]2(Cc3ccc(C#N)cc3[C@]23N=C(N)N(C[C@@H]2COCCO2)C3=O)C[C@@H]1C` [Example 21] was tested. Which “hERG % inhibition @ 10 μM (assay 3)” value did it give?
**A.** The value was 24%.

**Q.** Which “hERG % inhibition @ 10 μM (assay 3)” value does the source give for `CO[C@H]1[C@H](C)C[C@@]2(Cc3ccc(C#N)cc3[C@]23N=C(N)N(CCC2COC2)C3=O)C[C@@H]1C` [Example 19] here?
**A.** Its value is 8%.

**Q.** For `COC1CCC2(CC1)Cc1ccc(C#N)cc1C21N=C(N)N(CC2CCCO2)C1=O` (stereo not drawn) [Comparison example drawing 13, reference compound], which “hERG % inhibition @ 10 μM (assay 3)” value is on record?
**A.** The value was 16%.

**Q.** For `CO[C@H]1[C@H](C)C[C@@]2(Cc3ccc(C#N)cc3[C@]23N=C(N)N(CC2COC2)C3=O)C[C@@H]1C` [Example 13], which “hERG % inhibition @ 10 μM (assay 3)” value is on record?
**A.** The value was 18%.

**Q.** With `CO[C@H]1[C@H](C)C[C@@]2(Cc3ccc(F)cc3[C@]23N=C(N)N(C[C@@H]2CCOC2)C3=O)C[C@@H]1C` [Example 25] as the compound, how does the “hERG % inhibition @ 10 μM (assay 3)” value read?
**A.** The value was 10%.

**Q.** `CO[C@H]1[C@H](C)C[C@@]2(Cc3ccc(C#N)cc3[C@]23N=C(N)N(CC2(C)COC2)C3=O)C[C@@H]1C` [Example 11] was tested. Which “hERG % inhibition @ 10 μM (assay 3)” value did it give?
**A.** The value was 6%.

**Q.** With `CO[C@H]1[C@H](C)C[C@@]2(Cc3ccc(C#N)cc3[C@]23N=C(N)N(C[C@@H]2CCO2)C3=O)C[C@@H]1C` (stereo in doubt) [Example 18] as the compound, how does the “hERG % inhibition @ 10 μM (assay 3)” value read?
**A.** Its value is 17%.

**Q.** `CO[C@H]1[C@H](C)C[C@@]2(Cc3ccc(C#N)cc3[C@]23N=C(N)N(CC(C)(C)F)C3=O)C[C@@H]1C` [Example 17] was tested. Which “hERG % inhibition @ 10 μM (assay 3)” value did it give?
**A.** The value was 12%.

**Q.** `CC[C@@H]1C[C@]2(CC[C@H]1OC)Cc1ccc(C#N)cc1[C@]21N=C(N)N(Cc2ncccn2)C1=O` [Example 1] was tested. Which “hERG % inhibition @ 10 μM (assay 3)” value did it give?
**A.** The value was 8%.

**Q.** Which “hERG % inhibition @ 10 μM (assay 3)” value does the source give for `CO[C@H]1CC[C@@]2(Cc3ccc(C#N)cc3[C@]23N=C(N)N(Cc2ccncn2)C3=O)C[C@@H]1C` [Example 9] here?
**A.** The value was 16%.

**Q.** `CO[C@H]1[C@H](C)C[C@@]2(Cc3ccc(C#N)cc3[C@]23N=C(N)N(Cc2ncc(F)cn2)C3=O)C[C@@H]1C` [Example 10] was tested. Which “hERG % inhibition @ 10 μM (assay 3)” value did it give?
**A.** Its value is 38%.

**Q.** `CC[C@@H]1C[C@]2(CC[C@H]1OC)Cc1ccc(C#N)cc1[C@]21N=C(N)N(CC(C)(C)F)C1=O` [Example 3] was tested. Which “hERG % inhibition @ 10 μM (assay 3)” value did it give?
**A.** Its value is 9%.

**Q.** For `CO[C@H]1[C@H](C)C[C@@]2(Cc3ccc(F)cc3[C@]23N=C(N)N(CC2(C)OCCO2)C3=O)C[C@@H]1C` [Example 29], which “hERG % inhibition @ 10 μM (assay 3)” value is on record?
**A.** The value was 7%.

**Q.** `CO[C@H]1[C@H](C)C[C@@]2(Cc3ccc(C#N)cc3[C@]23N=C(N)N(CC2(C)OCCO2)C3=O)C[C@@H]1C` [Example 20] was tested. Which “hERG % inhibition @ 10 μM (assay 3)” value did it give?
**A.** The value was 8%.

**Q.** With `CC[C@H]1C[C@@]2(CC[C@@H]1OC)Cc1ccc(C#N)cc1[C@]21N=C(N)N(C[C@H]2CCCO2)C1=O` [Example 5] as the compound, how does the “hERG % inhibition @ 10 μM (assay 3)” value read?
**A.** Its value is 7%.

**Q.** `CO[C@H]1CC[C@@]2(Cc3ccc(C#N)cc3[C@]23N=C(N)N(CC2COCCO2)C3=O)C[C@@H]1C` (stereo partly drawn) [Example 27] was tested. Which “hERG % inhibition @ 10 μM (assay 3)” value did it give?
**A.** Its value is 19%.

**Q.** `CC[C@@H]1C[C@]2(CC[C@H]1OC)Cc1ccc(C#N)cc1[C@]21N=C(N)N(C[C@H]2COCCO2)C1=O` [Example 28] was tested. Which “hERG % inhibition @ 10 μM (assay 3)” value did it give?
**A.** Its value is 9%.

**Q.** `CO[C@H]1[C@H](C)C[C@@]2(Cc3ccc(C#N)cc3[C@]23N=C(N)N(Cc2ccncn2)C3=O)C[C@@H]1C` [Example 24] was tested. Which “hERG % inhibition @ 10 μM (assay 3)” value did it give?
**A.** The value was 23%.

**Q.** `CC[C@@H]1C[C@]2(CC[C@H]1OC)Cc1ccc(C#N)cc1[C@]21N=C(N)N(CC2CCOCC2)C1=O` [Example 2] was tested. Which “hERG % inhibition @ 10 μM (assay 3)” value did it give?
**A.** The value was 22%.

**Q.** `COCCN1C(=O)[C@]2(N=C1N)c1cc(C#N)ccc1C[C@@]21CC[C@H](OC)[C@@H](C)C1` [Example 7] was tested. Which “hERG % inhibition @ 10 μM (assay 3)” value did it give?
**A.** The value was 8%.

**Q.** For `CO[C@H]1CC[C@@]2(Cc3ccc(C#N)cc3[C@]23N=C(N)N(CC2(C)COC2)C3=O)C[C@@H]1C` [Example 8], which “hERG % inhibition @ 10 μM (assay 3)” value is on record?
**A.** The value was 16%.
